# According to patent US20120329815A1, “Famciclovir for the Treatment of Recurrent Herpes Labialis using a One-Day Treatment” (priority 2005, published 2012):
# Experiments:
# [1] = test system: orolabial herpes infection; conditions: 200 mg or 400 mg five times a day for five days; cited from earlier work
# [2] = Study 2403: safety and tolerability evaluation; type: in vivo, human; conditions: high-dose one-day treatment (750 mg b.i.d. or 1,500 mg q.d.), immunocompetent patients
# From the text: The assessment of safety is based mainly on the frequency of adverse events. Adverse events are summarized by presenting, for each treatment group, the number and percentage of patients having any adverse event, having an adverse event in each body system and having each individual adverse event. Any other information collected (e.g., severity or relatedness to study medication) will be listed as appropriate.
# The safety and ITT populations include all randomized patients who are exposed to (take any) study medication. Using the above definitions, the safety and ITT populations comprise the same patients. For compatibility with the standard presentations, all safety summaries are referenced using the Safety population while appropriate efficacy summaries (for secondary parameters involving both vesicular and non-vesicular lesions) are referenced using the ITT population.
# [3] = test system: recurrent herpes labialis; conditions: 500 mg three times a day for five days; immunocompetent adult patients; cited from earlier work
# [4] = test system: recurrent herpes labialis; experiment: Study 2403: randomized, double-blind, placebo-controlled trial of patient-initiated one-day therapy, efficacy; type: in vivo, human; conditions: for Hazard ratio vs placebo, time to healing of all (non-aborted and aborted) lesions / Proportion of patients with aborted lesions / Time to healing of all (non-aborted and aborted) lesions (median): ITT; for Time to healing of all (non-aborted and aborted) lesions (median): aborted lesions assigned time zero
# From the text: This study design is a parallel-group, double-blind, double-dummy, randomized placebo-controlled trial of patient initiated therapy in adult immunocompetent patients with recurrent herpes labialis.
# Adult immunocompetent patients with a history of recurrent herpes labialis and at least three episodes in the previous 12 months are selected. These patients have a history of prodromal symptoms preceding at least 50% of their herpes labialis episodes and a history of vesicular lesions occurring in at least 50% of those episodes.
# After screening, a total of 900 eligible patients are randomly assigned to one of three treatment groups and are dispensed study medication. The overall assignment ratio is 1:1:1. Patients are instructed to initiate treatment within one hour of the first prodromal symptom without any clinical signs of a recurrent episode of herpes labialis.
# Group 1, famciclovir 1500 mg daily (1500 mg po followed by placebo 12 hours later)
# Group 2, famciclovir 1500 mg daily (750 mg po b.i.d.) or
# Group 3, matching placebo capsules (po b.i.d.).
# The criteria for evaluation include the primary efficacy variable and secondary efficacy variables. The primary efficacy variable is the investigator-assessed time to healing (re-epithelialization) of the non-aborted primary lesion complex, defined as the time from start of treatment until loss of crust (erythema may have been present). Secondary efficacy variables include time to healing of all non-aborted lesions (primary lesion complex and secondary lesions), time to healing of all lesions (non-aborted and aborted; latter assigned a time to healing of zero), and proportion of patients with aborted lesions.
# Lesion healing for vesicular lesions is defined as loss of crust, although erythema may still be present. At each visit starting with Visit 2, the investigator makes assessments based on both the investigator examination of the current visit and patient diary entries since the previous visit. If healing is confirmed, the time of healing is defined as the earliest time it was reported and continuously maintained in the diary. This convention applies to the assessment of both the primary lesion complex and all vesicular lesions.
# The Kaplan-Meier method is used to estimate the distribution of time to healing for each treatment group and the median time to healing. Estimated survival curves are plotted. The 95% confidence intervals for the median times to healing are constructed based on the first-order Taylor series approximation of their standard errors using the standard errors of the estimated survival functions. The 95% confidence intervals for between-treatment median differences are constructed using standard errors.
# The overall distribution of the time to healing will be compared among treatment groups using the proportional hazards model, with treatment and center as the explanatory, variables. The Efron approximate likelihood method will be used for resolution of ties. Confidence intervals for the hazard ratios will be provided.
# Variable 1, the primary efficacy variable, is the investigator-assessed time to healing of the primary lesion complex, defined as the time from start of treatment until loss of crust (for vesicular (classical) lesions progressing through the vesicle/ulcer stage only, erythema is allowed).
# The primary efficacy variable, investigator-assessed time to healing of the primary lesion complex, is analyzed over the modified ITT population in two approaches: the primary estimation is based on the Kaplan-Meier method, and statistical testing is based on the proportional hazards model.
# Secondary efficacy variables include variables 2-7. Variable 2 is the time to healing (lost of crust) of the primary lesion complex (non-vesicular lesions will be assigned a time of zero). Variable 3 is the time to healing (loss of crust) of all vesicular lesions (non-vesicular lesions will be assigned a time of zero). […]
# [5] = test system: herpes labialis; conditions: 2,000 mg twice a day for one day; immunocompetent adult patients; cited from earlier work
# [6] = 750 mg b.i.d. for one day, Modified ITT
# [7] = 750 mg b.i.d. for one day, Per Protocol
# [8] = 1500 mg q.d. single dose, Modified ITT
# [9] = 1500 mg q.d. single dose, Per Protocol
compound,measurement,setting,value
Nc1nc2c(ncn2COCCO)c(=O)[nH]1 [acyclovir],Time to healing of vesicular lesions and pain,[1],significant but limited reduction
"CC(=O)OCC(CCn1cnc2cnc(N)nc21)COC(C)=O [Famciclovir, 9-(4-acetoxy-3-acetoxymethylbut-1-yl)-2-aminopurine]",Safety and tolerability,[2],"safe, well-tolerated"
same,Safety and tolerability,[2]; listed as FCV,well tolerated and as safe as placebo
same,Size of lesions as compared to placebo,[3],reduction of the size of lesions
same,Time to healing as compared to placebo,[3],shorter time to healing
same,"Hazard ratio vs placebo, time to healing of all (non-aborted and aborted) lesions",[4]; 750 mg b.i.d. for one day,1.39
same,Proportion of patients with aborted lesions,[4]; 750 mg b.i.d. for one day,29%
same,Time to healing of all (non-aborted and aborted) lesions (median),[4]; 750 mg b.i.d. for one day,3.0 days
same,"Hazard ratio vs placebo, time to healing of all non-aborted (primary and secondary) lesions",[4]; [6],2.06
same,"Hazard ratio vs placebo, time to healing of primary lesion complex",[4]; [6],2.05
same,Time to healing of all non-aborted (primary and secondary) lesions (median),[4]; [6],4.1 days
same,Time to healing of primary lesion complex (median),[4]; [6],4.0 days
same,"Hazard ratio vs placebo, time to healing of primary lesion complex",[4]; [7],2.06
same,Time to healing of primary lesion complex (median),[4]; [7],4.0 days
same,"Hazard ratio vs placebo, time to healing of all (non-aborted and aborted) lesions",[4]; 1500 mg q.d. single dose,1.34
same,Proportion of patients with aborted lesions,[4]; 1500 mg q.d. single dose,33%
same,Time to healing of all (non-aborted and aborted) lesions (median),[4]; 1500 mg q.d. single dose,2.9 days
same,"Hazard ratio vs placebo, time to healing of all non-aborted (primary and secondary) lesions",[4]; [8],1.71
same,"Hazard ratio vs placebo, time to healing of primary lesion complex",[4]; [8],1.64
same,Time to healing of all non-aborted (primary and secondary) lesions (median),[4]; [8],4.5 days
same,Time to healing of primary lesion complex (median),[4]; [8],4.4 days
same,"Hazard ratio vs placebo, time to healing of primary lesion complex",[4]; [9],1.71
same,Time to healing of primary lesion complex (median),[4]; [9],4.4 days
CC(C)[C@H](N)C(=O)OCCOCn1cnc2c(=O)[nH]c(N)nc21 [Valacyclovir],Median time to healing of lesions as compared to placebo,[5],reduced by approximately one day
